According to PMC11236204 (PLOS Pathogens, 2024):
Where “and” joins values, the source holds several entries; their conditions need not be identical. Equal values may be shown once. Read-outs that look alike come from different tables or passages of the source. Peptide text beside a SMILES is read from it. * marks the point of attachment. X1 = CCCCCCCCCCCCCCCC(=O)OCC(C*)OC(=O)CCCCCCCCCCCCCCC; Palmitoyl = CCCCCCCCCCCCCCCC(=O)*

Experiments:
RVFV MP-12 [1] = type: cell-based, Rift Valley fever virus; set-up: relative RVFV infection in neurons treated with TLR2 ligands, Rep 1 / relative RVFV infection in neurons treated with TLR2 ligands, Rep 2: unit not given here
RVFV-DiD = type: cell-based, Rift Valley fever virus; settings: 1h
RVFV MP-12 [2] = type: cell-based, Rift Valley fever virus; settings: 24h
RVFV MP-12 [3] = type: cell-based, Rift Valley fever virus; settings: 10μg/mL
RVFV MP-12 [4] = type: cell-based, Rift Valley fever virus; settings: 10μg/mL for 4h; 15h
RVFV ZH501 [5] = settings: mouse, in vivo
RVFV ZH501 [6] = tested on: RVFV ZH501; set-up: species or system mouse (C57BL/6); settings: mouse, in vivo
RVFV MP-12 [7] = type: cell-based, Rift Valley fever virus
RVFV MP-12 [8] = type: cell-based, Rift Valley fever virus; remark: listed apart in the source
[9] = tested on: VSV-RVFV (recombinant VSV expressing RVFV glycoproteins Gn and Gc); type: cell-based, vesicular stomatitis virus / RVFV ZH501 glycoproteins
VSV-GFP [10] = type: cell-based, vesicular stomatitis virus
RVFV MP-12 [11] = type: cell-based, Rift Valley fever virus; remark: listed apart in the source
RVFV ZH501 [12] = tested on: RVFV ZH501; set-up: species or system mouse (C57BL/6); settings: mouse, in vivo; remark: listed apart in the source
RVFV MP-12 [13] = type: cell-based, Rift Valley fever virus; settings: for RVFV RNA after lipopeptide pretreatment: 10μg/mL for 4h
RVFV ZH501 [14] = tested on: RVFV ZH501; set-up: species or system mouse (C57BL/6); settings: mouse, in vivo; remark: listed apart in the source
RVFV MP-12 [15] = tested on: RVFV MP-12
RVFV MP-12 [16] = type: cell-based, Rift Valley fever virus; settings: 10μg/mL; remark: listed apart in the source
RVFV ZH501 [17] = tested on: RVFV ZH501; set-up: species or system mouse (C57BL/6); settings: mouse, in vivo; remark: listed apart in the source
RVFV MP-12 [18] = type: cell-based, Rift Valley fever virus; remark: listed apart in the source
[19] = tested on: VSV-RVFV (recombinant VSV expressing RVFV glycoproteins Gn and Gc); type: cell-based, vesicular stomatitis virus / RVFV ZH501 glycoproteins; settings: 14h
VSV-GFP [20] = settings: 2 h
[21] = tested on: Ifit2, Cxcl10, Tnfa, Cxcl1 RNA; type: cell-based, rat
La Crosse virus (LACV) = type: cell-based

For 2'3'-c-di-AMP, the “Rep 1 rel infection” value (RVFV MP-12 [1]) was 1.031 and 1.083 and the “Rep 2 rel infection” value (RVFV MP-12 [1]) was 1.123 and 1.1792.

With CO/C1=C\C(C)=C\[C@@H](C)[C@@H](O)[C@@H](C)C/C(C)=C/C=C/[C@H](OC)[C@@H]([C@@H](C)[C@@H](O)[C@H](C)[C@@]2(O)C[C@@H](O)[C@H](C)[C@@H](C(C)C)O2)OC1=O [BafA, bafilomycin A1] the “number, intensity, and area of DiD puncta” value (RVFV-DiD) was “decreased”, the “RVFV infection after pulse at pH 7.6” value (RVFV MP-12 [2]) was “blocked infection” and the “RVFV infection in acid-washed cells (pH 5.2)” value (RVFV MP-12 [2]) was “did not block infection”.

With CCNCc1nc2c(N)nc3ccccc3c2n1CC(C)(C)O [Gardiquimod] the “neurotoxicity in screen (relative survival of neurons)” value (rat cortical neurons) was “neurotoxic”.

In the case of CC(C)Cn1cnc2c(N)nc3ccccc3c21 [Imiquimod], the “neurotoxicity in screen (relative survival of neurons)” value (rat cortical neurons) is reported as “neurotoxic”.

CCCCCCCCCCCCCCCC(=O)N[C@@H](CSCC(COC(=O)CCCCCCCCCCCCCCC)OC(=O)CCCCCCCCCCCCCCC)C(=O)N[C@@H](CO)C(=O)N[C@@H](CCCCN)C(=O)N[C@@H](CCCCN)C(=O)N[C@@H](CCCCN)C(=O)N[C@@H](CCCCN)C(=O)O (some centres unmarked) [Pam3CSK4] (Palmitoyl-C(X1)SKKKK-OH) was tested, and the “viral RNA bound to cells” value (RVFV MP-12 [3]) was “did not change”, the RVFV titers (RVFV MP-12 [4]) was 3.7 x 10^4 PFU / mL and 3.2 x 10^4 PFU / mL and the “survival of mice treated with Pam3CSK4 alone” value (RVFV ZH501 [5]) was “all mice treated with Pam3CSK4 alone survived”. The “decrease of viral replication in the brain” value (RVFV ZH501 [6]) was “more than 5 logs”, the “Rep 1 rel infection” value (RVFV MP-12 [7]) was 1.242 and 0.7928 and the “Rep 2 rel infection” value (RVFV MP-12 [7]) was 1.2338 and 0.6802. For the same compound, the “internalized RVFV RNA” value (RVFV MP-12 [8]) was “no difference”, the VSV-RVFV replication [9] was “decreased VSV-RVFV replication” and the “VSV RNA replication” value (VSV-GFP [10]) was “unchanged”. The “internalized RVFV RNA” value (RVFV MP-12 [11]) was “no difference”, the “RVFV nucleoprotein immunofluorescence in brain and liver” value (RVFV ZH501 [12]) was “decreased viral replication in the brain and liver” and the “hemorrhages caused by RVFV in the liver (H & E)” value (RVFV ZH501 [12]) was “reduced hemorrhages”. For the same compound, the “RVFV RNA after lipopeptide pretreatment” value (RVFV MP-12 [13]) was “decreased RVFV RNA”, the “RVFV RNA levels in the presence of TPCA-1 or IKK 16” value (RVFV MP-12 [13]; 10μg/mL, 24h) was “significantly decreased” and the “RVFV titers in the liver” value (RVFV ZH501 [14]) was “significantly decreased”. The “Mouse cortical neurons Rel. infection” value (RVFV MP-12 [15]; 0.016 ug/mL) was 0.9744 and 0.948 and 1.028, the “Mouse cortical neurons Rel. infection” value (RVFV MP-12 [15]; 0.08 ug/mL) was 1.018 and 0.9269 and 0.9842 and the “Mouse cortical neurons Rel. infection” value (RVFV MP-12 [15]; 0.4 ug/mL) was 1.0033 and 0.9456 and 0.9907. For the same compound, the “Mouse cortical neurons Rel. infection” value (RVFV MP-12 [15]; 2 ug/mL) was 1.058 and 0.9085 and 1.0272, the “Mouse cortical neurons Rel. infection” value (RVFV MP-12 [15]; 10 ug/mL) was 0.3619 and 0.3566 and 0.3035 and the “viral RNA bound to cells” value (RVFV MP-12 [16]) was “did not change”. The “infection relative to vehicle in screen” value (RVFV MP-12 [1]) was “below 60 % of vehicle”, the “relative RVFV infection in neurons treated with TLR2 ligands, Rep 1” value (from here on “relative RVFV infection … Rep 1”) (RVFV MP-12 [1]) was 26.2716 and the “relative RVFV infection in neurons treated with TLR2 ligands, Rep 2” value (“relative RVFV infection … Rep 2” below) (RVFV MP-12 [1]) was 51.9474. The “Neurologic disease at 3dpi? No (number of mice)” value (RVFV ZH501 [17]) was 2 and 3, the “Neurologic disease at 3dpi? Yes (number of mice)” value (RVFV ZH501 [17]) was 0 and the “mice with signs of severe (neurologic) disease” value (RVFV ZH501 [17]) was “zero out of three and 0/3”. The “Neutralization (relative RVFV infection)” value (RVFV MP-12 [18]) was 1.27 and 1.194 and 1.159 and 1.08, the “RVFV infection, neutralization condition” value (RVFV MP-12 [18]; 24 hours) was “failed to neutralize RVFV” and the “number, intensity, and area of DiD puncta” value (RVFV-DiD) was “decreased”. The “RVFV infection in DMSO treated cells” value (RVFV MP-12 [2]; 10μg/mL) was “inhibited RVFV infection”, the “RVFV infection in acid-washed, BafA-treated cells” value (RVFV MP-12 [2]; 10μg/mL, pH 5.2) was “decreased RVFV infection” and the VSV-RVFV replication [19] was “decreased VSV-RVFV replication”. For the same compound, the “IC50 against VSV” value (VSV-GFP [20]) was greater than 10 µg/mL.

For NC(=O)Nc1sc(-c2ccc(F)cc2)cc1C(N)=O [TPCA-1, 2-[(aminocarbonyl)amino]-5-(4-fluorophenyl)-3-thiophenecarboxamide], the “transcription of NF-κB target genes Tnfa and Cxcl1 after Pam3CSK4 stimulation” value [21] was “blunted transcription”.

In the case of FSL-1, the “relative RVFV infection … Rep 1” value (RVFV MP-12 [1]) is reported as 105.077 and the “relative RVFV infection … Rep 2” value (RVFV MP-12 [1]) is reported as 120.652.

With IKK 16 the “transcription of NF-κB target genes Tnfa and Cxcl1 after Pam3CSK4 stimulation” value [21] was “blunted transcription”.

In the case of Pam2CSK4, the “Rel. Fold change Cxcl1 RNA” value [21] is reported as 1030.97 and 740.202, the “Rel. Fold change Tnfa RNA” value [21] is reported as 157.572 and 100.256 and the “inflammatory gene transcription (Tnfa, Cxcl1, Cxcl10)” value ([21]; 10μg/mL for 4h) is reported as “induced inflammatory gene transcription”. For the same compound, the “Rel. VSV-RVFV RNA” value [9] was 0.4225 and 0.2236 and 0.215, the VSV-RVFV replication [9] was “also reduced VSV-RVFV infection, although it was significantly weaker than Pam3CSK4” and the “Rel. LACV RNA” value (La Crosse virus (LACV)) was 0.9766 and 0.5238 and 0.6648 and 0.9475. The “antiviral effect on LACV (qPCR and microscopy)” value (La Crosse virus (LACV)) was “no antiviral effect”, the “VSV RNA replication” value (VSV-GFP [10]) was “no antiviral effect” and the “Rel. Fold change RVFV RNA” value (RVFV MP-12 [13]) was 0.741 and 1.189. The “RVFV RNA after lipopeptide pretreatment” value (RVFV MP-12 [13]) was “no antiviral effect”, the “RVFV infection in neurons in screen” value (RVFV MP-12 [1]) was “did not decrease RVFV infection” and the “Rep 1 rel infection” value (RVFV MP-12 [1]) was 1.076 and 1.061. For the same compound, the “relative RVFV infection … Rep 1” value (RVFV MP-12 [1]) was 106.055 and the “relative RVFV infection … Rep 2” value (RVFV MP-12 [1]) was 122.343.
